In patent publication US9409966B2, “Glucagon-like peptide-1 derivatives and their pharmaceutical use” (priority 2007, dated 2016):
*1 amine or outer side, *2 acyl side, *3 side chain or, on linkers, in order; H or OH if unused. Where a SMILES comes first, the peptide text is derived from it. Side-chain parts run from the residue outwards. [ ]: non-standard residue; d: D form. The star is where a group is joined. γGlu = O=C(O)[C@H](CCC(=O)[*:2])N[*:1]; Palmitoyl = CCCCCCCCCCCCCCCC(=O)*; AEEA = NCCOCCOCC(=O)O; Aib = CC(C)(N)C(=O)O

Assays:
[1] = target: human serum albumin (HSA) (Homo sapiens, UniProt P02768); experiment: Albumin binding affinity, competition scintillation proximity assay (SPA)
human serum albumin (HSA), sequence (P02768 25-609): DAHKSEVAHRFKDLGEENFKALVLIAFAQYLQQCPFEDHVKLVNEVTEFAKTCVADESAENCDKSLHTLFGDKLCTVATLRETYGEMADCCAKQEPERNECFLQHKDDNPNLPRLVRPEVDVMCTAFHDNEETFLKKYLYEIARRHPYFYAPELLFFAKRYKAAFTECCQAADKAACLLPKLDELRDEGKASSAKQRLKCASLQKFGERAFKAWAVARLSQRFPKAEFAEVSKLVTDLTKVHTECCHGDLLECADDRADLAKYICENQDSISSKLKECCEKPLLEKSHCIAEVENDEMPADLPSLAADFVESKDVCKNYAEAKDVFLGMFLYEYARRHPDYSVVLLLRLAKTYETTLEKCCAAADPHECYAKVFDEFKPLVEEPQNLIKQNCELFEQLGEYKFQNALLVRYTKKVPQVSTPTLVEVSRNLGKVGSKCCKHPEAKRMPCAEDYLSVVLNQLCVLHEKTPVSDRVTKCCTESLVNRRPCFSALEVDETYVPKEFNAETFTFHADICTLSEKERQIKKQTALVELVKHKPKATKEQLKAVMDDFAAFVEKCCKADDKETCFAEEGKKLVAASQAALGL
Procedure: Streptavidin-SPA beads (GE Healthcare RPNQ0009) were incubated with biotinylated HSA for 5 hours. The beads were washed with buffer to remove unbound HSA. […] After 20 hours of gentle rocking at room temperature the plates were centrifuged and counted on a TopCounter.

human GLP-1 receptor = target: T1, human GLP-1 receptor (Homo sapiens, UniProt P43220); experiment: Stimulation of cAMP formation in a cell line expressing the cloned human GLP-1 receptor; assay type: biochemical; conditions: cAMP production, purified plasma membranes from BHK467-12A (tk-ts13), AlphaScreen cAMP Assay Kit; read-out: Potency [EC50/nM]
T1 construct: expressed in transfected cells; host or cells: BHK467-12A (tk-ts13) baby hamster kidney cells; purified plasma membranes
T1 sequence (P43220 24-463): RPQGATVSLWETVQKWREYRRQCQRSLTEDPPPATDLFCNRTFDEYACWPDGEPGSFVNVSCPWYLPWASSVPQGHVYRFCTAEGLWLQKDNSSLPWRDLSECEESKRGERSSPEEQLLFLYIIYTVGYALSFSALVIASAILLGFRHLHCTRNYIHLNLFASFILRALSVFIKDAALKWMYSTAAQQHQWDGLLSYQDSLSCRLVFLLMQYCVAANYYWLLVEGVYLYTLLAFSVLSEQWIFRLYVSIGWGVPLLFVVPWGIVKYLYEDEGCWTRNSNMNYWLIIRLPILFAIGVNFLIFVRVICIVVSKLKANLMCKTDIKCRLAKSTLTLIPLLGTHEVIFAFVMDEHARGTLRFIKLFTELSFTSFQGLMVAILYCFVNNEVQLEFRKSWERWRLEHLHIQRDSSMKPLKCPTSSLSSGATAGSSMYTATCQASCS
Procedure: A stable transfected cell line has been prepared at NN A/S, Denmark, and a high expressing clone was selected for screening. The cells were grown at 5% CO2 in DMEM, 5% FCS, 1% Pen/Strep (Penicillin/Streptomycin) and 0.5 mg/ml of the selection marker G418.
Cells at approximate 80% confluence were washed 2× with PBS (Phosphate Buffered Saline) and harvested with Versene (aqueous solution of the tetrasodium salt of ethylenediaminetetraacetic acid), centrifuged 5 min at 1000 rpm and the supernatant removed. The additional steps were all made on ice. […] Suspension in Buffer 2, homogenization and centrifugation was repeated once and the membranes were resuspended in Buffer 2 and ready for further analysis or stored at −80° C.
The functional receptor assay was carried out by measuring the peptide induced cAMP production by The AlphaScreen Technology. […] The capture of cAMP is achieved by using a specific antibody conjugated to acceptor beads. Formed cAMP was counted and measured at a AlphaFusion Microplate Analyzer. The EC50 values were calculated using the Graph-Pad Prisme software (version 5).

Structure (SMILES) | EC50 [1] | EC50 (human GLP-1 receptor)
CCCCCCCCCCCCCCCC(=O)N[C@@H](CCC(=O)NCCOCCOCC(=O)NCCOCCOCC(=O)NCCCC[C@H](NC(=O)[C@H](Cc1ccc(O)cc1)NC(=O)[C@H](CO)NC(=O)[C@H](CO)NC(=O)[C@@H](NC(=O)[C@H](CC(=O)O)NC(=O)[C@H](CO)NC(=O)[C@@H](NC(=O)[C@H](Cc1ccccc1)NC(=O)[C@@H](NC(=O)CNC(=O)[C@H](CCC(=O)O)NC(=O)C(C)(C)NC(=O)[C@@H](N)Cc1c[nH]cn1)[C@@H](C)O)[C@@H](C)O)C(C)C)C(=O)N[C@@H](CCC(=O)O)C(=O)N[C@@H](CCC(=O)O)C(=O)N[C@@H](CCC(N)=O)C(=O)N[C@@H](C)C(=O)N[C@@H](C)C(=O)N[C@@H](CCCNC(=N)N)C(=O)N[C@@H](CCC(=O)O)C(=O)N[C@@H](Cc1ccccc1)C(=O)N[C@H](C(=O)N[C@@H](CCC(=O)O)C(=O)N[C@@H](Cc1c[nH]c2ccccc12)C(=O)N[C@@H](CC(C)C)C(=O)N[C@H](C(=O)N[C@@H](CCCCN)C(=O)NCC(=O)N[C@@H](CCCNC(=N)N)C(=O)N1CCC[C@H]1C(N)=O)C(C)C)[C@@H](C)CC)C(=O)O [Example 24, N-epsilon20-(2-{2-[2-(2-{2-[2-((S)-4-Carboxy-4-hexadecanoylamino-butyrylamino)ethoxy]ethoxy}acetylamino)ethoxy]ethoxy}-acetyl)[Aib8,Lys20,Glu22,Arg26,Glu30,Pro37]GLP-1-(7-37)amide] (H-H[Aib]EGTFTSDVSSYK([AEEA-AEEA-γGlu-Palmitoyl])EEQAAREFIEWLVKGRP-NH2) | 1500 to 2000 nM | 0.01 nM
CC[C@H](C)[C@H](NC(=O)[C@H](Cc1ccccc1)NC(=O)[C@H](CCC(=O)O)NC(=O)[C@H](CCCNC(=N)N)NC(=O)[C@H](C)NC(=O)[C@H](C)NC(=O)[C@H](CCC(N)=O)NC(=O)[C@H](CCC(=O)O)NC(=O)[C@H](CCC(=O)O)NC(=O)[C@H](CC(C)C)NC(=O)[C@H](Cc1ccc(O)cc1)NC(=O)[C@H](CO)NC(=O)[C@H](CO)NC(=O)[C@@H](NC(=O)[C@H](CC(=O)O)NC(=O)[C@H](CO)NC(=O)[C@@H](NC(=O)[C@H](Cc1ccccc1)NC(=O)[C@@H](NC(=O)CNC(=O)[C@H](CCC(=O)O)NC(=O)[C@H](C)NC(=O)CCc1c[nH]cn1)[C@@H](C)O)[C@@H](C)O)C(C)C)C(=O)N[C@@H](C)C(=O)N[C@@H](Cc1c[nH]c2ccccc12)C(=O)N[C@@H](CC(C)C)C(=O)N[C@H](C(=O)N[C@@H](CCCNC(=N)N)C(=O)NCC(=O)N[C@@H](CCCNC(=N)N)C(=O)N[C@@H](CCCCNC(=O)COCCOCCNC(=O)COCCOCCNC(=O)C[C@@H](NC(=O)C1CCN(C(=O)CCCCCCCCCCCCCCCCCCC(=O)O)CC1)C(=O)O)C(N)=O)C(C)C [Example 1, N-epsilon37{2-[2-(2-{2-[2-((R)-3-carboxy-3-{[1-(19-carboxynonadecanoyl)piperidine-4-carbonyl]amino}propionylamino)ethoxy]ethoxy}acetylamino)ethoxy]ethoxy}acetyl [desaminoHis7,Glu22,Arg26,Arg34,Lys37]GLP-1(7-37)amide] | 400 to 800 nM | 0.37 nM
CC[C@H](C)[C@H](NC(=O)[C@H](Cc1ccccc1)NC(=O)[C@H](CCC(=O)O)NC(=O)[C@H](CCCNC(=N)N)NC(=O)[C@H](C)NC(=O)[C@H](C)NC(=O)[C@H](CCC(N)=O)NC(=O)[C@H](CCC(=O)O)NC(=O)[C@H](CCC(=O)O)NC(=O)[C@H](CC(C)C)NC(=O)[C@H](Cc1ccc(O)cc1)NC(=O)[C@H](CO)NC(=O)[C@H](CO)NC(=O)[C@@H](NC(=O)[C@H](CC(=O)O)NC(=O)[C@H](CO)NC(=O)[C@@H](NC(=O)[C@H](Cc1ccccc1)NC(=O)[C@@H](NC(=O)CNC(=O)[C@H](CCC(=O)O)NC(=O)[C@H](C)NC(=O)CCc1c[nH]cn1)[C@@H](C)O)[C@@H](C)O)C(C)C)C(=O)N[C@@H](C)C(=O)N[C@@H](Cc1c[nH]c2ccccc12)C(=O)N[C@@H](CC(C)C)C(=O)N[C@H](C(=O)N[C@@H](CCCNC(=N)N)C(=O)NCC(=O)N[C@@H](CCCNC(=N)N)C(=O)N[C@@H](CCCCNC(=O)COCCOCCNC(=O)COCCOCCNC(=O)CC[C@H](NC(=O)[C@H]1CC[C@H](CNC(=O)CCCCCCCCCCCCCCCCCCC(=O)O)CC1)C(=O)O)C(N)=O)C(C)C [Example 8, N-epsilon37-[2-(2-{2-[2-(2-{2-[(S)-4-Carboxy-4-({trans-4-[(19-carboxy-nonadecanoylamino)methyl]cyclohexanecarbonyl}amino)butyrylamino]ethoxy}ethoxy)acetylamino]ethoxy}ethoxy)acetyl][DesaminoHis7,Glu22,Arg26,Arg34,Lys37]GLP-1-(7-37)amide] | 1500 to 2000 nM | 0.66 nM
CC[C@H](C)[C@H](NC(=O)[C@H](Cc1ccccc1)NC(=O)[C@H](CCC(=O)O)NC(=O)[C@H](CCCNC(=N)N)NC(=O)[C@H](C)NC(=O)[C@H](C)NC(=O)[C@H](CCC(N)=O)NC(=O)[C@H](CCC(=O)O)NC(=O)[C@H](CCC(=O)O)NC(=O)[C@H](CC(C)C)NC(=O)[C@H](Cc1ccc(O)cc1)NC(=O)[C@H](CO)NC(=O)[C@H](CO)NC(=O)[C@@H](NC(=O)[C@H](CC(=O)O)NC(=O)[C@H](CO)NC(=O)[C@@H](NC(=O)[C@H](Cc1ccccc1)NC(=O)[C@@H](NC(=O)CNC(=O)[C@H](CCC(=O)O)NC(=O)C(C)(C)NC(=O)[C@@H](N)Cc1c[nH]cn1)[C@@H](C)O)[C@@H](C)O)C(C)C)C(=O)N[C@@H](C)C(=O)N[C@@H](Cc1c[nH]c2ccccc12)C(=O)N[C@@H](CC(C)C)C(=O)N[C@H](C(=O)N[C@@H](CCCNC(=N)N)C(=O)NCC(=O)N[C@@H](CCCNC(=N)N)C(=O)N[C@@H](CCCCNC(=O)COCCOCCNC(=O)COCCOCCNC(=O)C[C@H](NC(=O)C1CCN(C(=O)CCCCCCCCCCCCCCCCCCC(=O)O)CC1)C(=O)O)C(N)=O)C(C)C [Example 2, N-epsilon37{2-[2-(2-{2-[2-((S)-3-carboxy-3-{[1-(19-carboxynonadecanoyl)piperidine-4-carbonyl]amino}propionylamino)ethoxy]ethoxy}acetylamino)ethoxy]ethoxy}acetyl [Aib8,Glu22,Arg26,Arg34,Lys37]GLP-1-(7-37)amide] | 200 to 400 nM | 0.2 nM
CC[C@H](C)[C@H](NC(=O)[C@H](Cc1ccccc1)NC(=O)[C@H](CCC(=O)O)NC(=O)[C@H](CCCNC(=N)N)NC(=O)[C@H](C)NC(=O)[C@H](C)NC(=O)[C@H](CCC(N)=O)NC(=O)[C@H](CCC(=O)O)NC(=O)[C@H](CCC(=O)O)NC(=O)[C@H](CC(C)C)NC(=O)[C@H](Cc1ccc(O)cc1)NC(=O)[C@H](CO)NC(=O)[C@H](CO)NC(=O)[C@@H](NC(=O)[C@H](CC(=O)O)NC(=O)[C@H](CO)NC(=O)[C@@H](NC(=O)[C@H](Cc1ccccc1)NC(=O)[C@@H](NC(=O)CNC(=O)[C@H](CCC(=O)O)NC(=O)C(C)(C)NC(=O)[C@@H](N)Cc1c[nH]cn1)[C@@H](C)O)[C@@H](C)O)C(C)C)C(=O)N[C@@H](C)C(=O)N[C@@H](Cc1c[nH]c2ccccc12)C(=O)N[C@@H](CC(C)C)C(=O)N[C@H](C(=O)N[C@@H](CCCNC(=N)N)C(=O)NCC(=O)N[C@@H](CCCNC(=N)N)C(=O)N[C@@H](CCCCNC(=O)COCCOCCNC(=O)COCCOCCNC(=O)CC[C@H](NC(=O)CCCCCCCCCCCCCCCCC(=O)O)C(=O)O)C(=O)O)C(C)C [Example 27, N-epsilon37-[2-(2-{2-[2-(2-{2-[(S)-4-Carboxy-4-(17-carboxy-heptadecanoylamino)-butyrylamino]-ethoxy}-ethoxy)-acetylamino]-ethoxy}-ethoxy)-acetyl] [Aib8,Glu22,Arg26,Arg34,Lys37]GLP-1-(7-37)] | 100 to 150 nM | 0.05 nM
CC[C@H](C)[C@H](NC(=O)[C@H](Cc1ccccc1)NC(=O)[C@H](CCC(=O)O)NC(=O)[C@H](CCCNC(=N)N)NC(=O)[C@H](C)NC(=O)[C@H](C)NC(=O)[C@H](CCC(N)=O)NC(=O)[C@H](CCC(=O)O)NC(=O)[C@H](CCC(=O)O)NC(=O)[C@H](CC(C)C)NC(=O)[C@H](Cc1ccc(O)cc1)NC(=O)[C@H](CO)NC(=O)[C@H](CO)NC(=O)[C@@H](NC(=O)[C@H](CC(=O)O)NC(=O)[C@H](CO)NC(=O)[C@@H](NC(=O)[C@H](Cc1ccccc1)NC(=O)[C@@H](NC(=O)CNC(=O)[C@H](CCC(=O)O)NC(=O)[C@H](C)NC(=O)CCc1c[nH]cn1)[C@@H](C)O)[C@@H](C)O)C(C)C)C(=O)N[C@@H](C)C(=O)N[C@@H](Cc1c[nH]c2ccccc12)C(=O)N[C@@H](CC(C)C)C(=O)N[C@H](C(=O)N[C@@H](CCCNC(=N)N)C(=O)NCC(=O)N[C@@H](CCCNC(=N)N)C(=O)N[C@@H](CCCCNC(=O)COCCOCCNC(=O)COCCOCCNC(=O)CC[C@H](NC(=O)CCCCCCCCCCCCCCCCC(=O)O)C(=O)O)C(=O)O)C(C)C [Example 29, N-epsilon37-[2-(2-{2-[2-(2-{2-[(S)-4-Carboxy-4-(17-carboxy-heptadecanoylamino)-butyrylamino]-ethoxy}-ethoxy)-acetylamino]-ethoxy}-ethoxy)-acetyl] [desaminoHis7,Glu22,Arg26,Arg34,Lys37] GLP-1-(7-37)] | 400 to 800 nM | 0.1 nM
